Results reported in publication PMC3601177 (Oncoimmunology, 2013).
Counter-ions that a name gives are not always drawn.

What was measured:
[1] = Pharmacokinetics of IM and CGP74588 in patient plasma; format: in vivo, human; details: for increase of AUC (0–24 h) at D14 versus D10 / increase of Cmax at D14 versus D10: after IL-2 co-administration D10-D14, IM 400 mg/day; for AUC(0-inf): human, plasma
[2] = tested on: lymphocytes, neutrophils and platelets; experiment: Blood cell counts during treatment; format: in vivo, human; details: between D1 and D10, IM alone
[3] = tested on: GIST with KIT exon 11 mutations; details: cited from earlier work

accumulation ratio (D10 to D1 trough concentration ratio) ([1]; IM 400 mg/day, mean ± SD)	increase of AUC (0–24 h) at D14 versus D10 [1]	increase of Cmax at D14 versus D10 [1]	AUC (0–24h) ([1]; patient #10, IL-2 dose level III, grade 3 systemic capillary leak syndrome)	lymphocyte, neutrophil or platelet counts [2]	AUC(0-inf) ([1]; im, 400 mg/day)	AUC(0-inf) ([1]; oral, 400 mg)	Structure (SMILES)	AUC (0–24h) ([1]; patient #8, IL-2 dose level III, no toxicity)	median OS [3]	median time to progression [3]
1.93 ± 0.69	61%	49%	25100 ng·h/mL	–	–	–	Cc1ccc(NC(=O)c2ccc(CN3CCNCC3)cc2)cc1Nc1nccc(-c2cccnc2)n1 [CGP74588, N-desmethyl-imatinib]	13400 ng·h/mL	–	–
–	61%	49%	–	no significant modifications	64100 ng·h/mL	39700 ng·h/mL	Cc1ccc(NC(=O)c2ccc(CN3CCN(C)CC3)cc2)cc1Nc1nccc(-c2cccnc2)n1 [IM, imatinib mesylate]	–	60 mo	27.2 mo
